Reference: patent publication US8664246B2, “Substituted pyridines, and use thereof as GSK3 inhibitors” (Bayer Intellectual Property GmbH, priority 2008, dated 2014)

Target: T1, GSK3β (Homo sapiens, UniProt P49841)
T1 construct: purchased Upstate 14-306
Experiment: In vitro biochemical GSK3β inhibition assay (pyruvate kinase/lactate dehydrogenase-coupled, NADH fluorescence)
Conditions: 5 nM GSK3β, 40 μM GSK3β substrate GSM, 50 μM ATP, 30° C. for 2 hours
Experimental: The inhibitory activity of active substances is determined in a biochemical assay. The ingredients required for this purpose are mixed in a black 384-well microtitre plate with transparent base (from Greiner, catalogue number 781092). The ingredients required for each well of the 384-well microtitre plate are 5 nM GSK3β (from Upstate, catalogue number 14-306), 40 μM GSK3β substrate GSM (sequence H-RRRPASVPPSPSLSRHS-(pS)-HQRR, from Upstate, catalogue number 2-533), 30 μM nicotinamide adenine dinucleotide NADH (Roche Diagnostics, catalogue number 10107735), 50 μM adenosine triphosphate ATP (from Sigma, catalogue number A7966), 2 mM phosphoenolpyruvate (from Roche, catalogue number 128112), and approx. 1 U/ml pyruvate kinase and approx. 1 U/ml lactate dehydrogenase, which are present together in a stock formulation (from Roche, catalogue number 10737291001, suspension with approx. 450 U/ml pyruvate kinase activity, approx. 450 U/ml lactate dehydrogenase activity in […] ammonium sulphate solution pH 6). 1 unit of pyruvate kinase converts 1 μmol of phosphoenolpyruvate to pyruvate per minute at pH 7.6 and 37° C., and 1 unit of lactate dehydrogenase reduces 1 μmol of pyruvate to lactate per minute at pH 7.5 and 37° C. The reaction buffer required, in which the biochemical reaction proceeds, consists of 50 mM Trizma hydrochloride Tris-HCl pH: 7.5 (from Sigma, catalogue number T3253), 5 mM magnesium chloride MgCl2 (from Sigma, catalogue number M8266), 0.2 mM DL-dithiothreitol DTT (from Sigma, catalogue number D9779), 2 mM ethylenediamine ether tetraacid EDTA (from Sigma, catalogue number E6758), 0.01% Triton X-100 (from Sigma, catalogue number T8787) and 0.05% bovine serum albumin BSA (from Sigma, catalogue number B4287).
Active substances are dissolved in dimethyl sulphoxide DMSO (from Sigma, catalogue number D8418) in a concentration of 10 mM. Active substances are added in serial concentrations of 10 μM, 1 μM, 0.1 μM, 0.01 μM, 0.001 μM, 0.0001 μM, 0.00001 μM, 0.000001 μM to the mixtures of the biochemical reaction. As control, dimethyl sulphoxide is added instead of substance in a final concentration of 0.1%.
The reaction is incubated at 30° C. for 2 hours and then the resulting fluorescence is measured in a Tecan Safire-XFLUOR4 instrument, version V4.50 (serial number 12901300283) with the specifications: measurement mode—fluorescence measured from below, excitation wavelength 340 nm, emission wavelength 465 nm, excitation slit width 5 nm, emission slit width 5 nm, gain mode 120, delay 0 μs, number of light flashes per measurement 3, and an integration time of 40 μs.
The activity of the active substances is calculated in relation to these 0% and 100%.

T1 sequence (P49841 whole entry): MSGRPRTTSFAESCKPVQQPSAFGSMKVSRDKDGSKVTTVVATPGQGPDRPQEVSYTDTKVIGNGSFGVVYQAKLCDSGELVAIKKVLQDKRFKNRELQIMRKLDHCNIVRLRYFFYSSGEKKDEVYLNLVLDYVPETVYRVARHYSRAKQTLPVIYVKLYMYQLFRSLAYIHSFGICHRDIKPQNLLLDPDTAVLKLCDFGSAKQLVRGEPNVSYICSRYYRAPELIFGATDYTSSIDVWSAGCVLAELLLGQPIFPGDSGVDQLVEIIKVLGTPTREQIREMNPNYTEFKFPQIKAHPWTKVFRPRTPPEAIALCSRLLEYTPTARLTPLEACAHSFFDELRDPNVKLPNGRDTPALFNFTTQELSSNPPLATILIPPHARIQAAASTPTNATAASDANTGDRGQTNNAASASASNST

| IC50 [nM] | Compound |
| --- | --- |
| 5.04 | N#Cc1ccc(-c2ccc(Cl)cc2Cl)nc1N1CCCC(Nc2ccc(C(=O)C(F)(F)F)c(N)n2)C1 (single isomer, unassigned) [Example Ent-B-2, 2-(3-{[6-amino-5-(trifluoroacetyl)pyridin-2-yl]amino}piperidin-1-yl)-6-(2,4-dichlorophenyl)pyridine-3-carbonitrile] |
| 6.3 | COc1ccccc1-c1ccc(C(=O)N2CCN(C(C)C)CC2)c(N2CCCC(Nc3ccc(C(=O)C(F)(F)F)c(N)n3)C2)n1 (single isomer, unassigned) [Example Ent-B-12, 1-[2-amino-6-({1-[6-(2-methoxyphenyl)-3-{[4-(propan-2-yl)-piperazin-1-yl]carbonyl}pyridin-2-yl]piperidin-3-yl}amino)pyridin-3-yl]-2,2,2-trifluoroethanone] |
| 26 | N#Cc1ccc(NC2CCCN(c3nc(-c4ccc(Cl)cc4Cl)ccc3C#N)C2)nc1N (stereo not shown) [Example 6, 2-Amino-6-({1-[3-cyano-6-(2,4-dichlorophenyl)pyridin-2-yl]piperidin-3-yl}amino)-pyridine-3-carbonitrile] |
| 12 | N#Cc1ccc(NC2CCCN(c3nc(-c4ccc(Cl)cc4Cl)ccc3C#N)C2)nc1 (stereo not shown) [Example 7, 2-{3-[(5-Cyanopyridin-2-yl)amino]piperidin-1-yl}-6-(2,4-dichlorophenyl)pyridine-3-carbonitrile] |
